# Data published in patent US6004960A, “Pyridazinones as inhibitors of cyclooxygenase-2” (Merck Frosst Canada, Inc., priority 1998, dated 1999).
# Legend:
# COX-2 [1] = biological target: T1, COX-2 (Homo sapiens, UniProt P35354); test: Human whole blood assay, COX-2 (LPS-induced PGE2 production); type: cell-based; design: incubation of human whole blood with LPS, which induces COX-2; from tissue; host or cells: fresh human whole blood (volunteers), incubated with LPS; conditions: LPS-induced PGE2, 24 hours at 37° C, read-out: COX-2 (IC50 μM) HWB
# T1 sequence (P35354 18-604): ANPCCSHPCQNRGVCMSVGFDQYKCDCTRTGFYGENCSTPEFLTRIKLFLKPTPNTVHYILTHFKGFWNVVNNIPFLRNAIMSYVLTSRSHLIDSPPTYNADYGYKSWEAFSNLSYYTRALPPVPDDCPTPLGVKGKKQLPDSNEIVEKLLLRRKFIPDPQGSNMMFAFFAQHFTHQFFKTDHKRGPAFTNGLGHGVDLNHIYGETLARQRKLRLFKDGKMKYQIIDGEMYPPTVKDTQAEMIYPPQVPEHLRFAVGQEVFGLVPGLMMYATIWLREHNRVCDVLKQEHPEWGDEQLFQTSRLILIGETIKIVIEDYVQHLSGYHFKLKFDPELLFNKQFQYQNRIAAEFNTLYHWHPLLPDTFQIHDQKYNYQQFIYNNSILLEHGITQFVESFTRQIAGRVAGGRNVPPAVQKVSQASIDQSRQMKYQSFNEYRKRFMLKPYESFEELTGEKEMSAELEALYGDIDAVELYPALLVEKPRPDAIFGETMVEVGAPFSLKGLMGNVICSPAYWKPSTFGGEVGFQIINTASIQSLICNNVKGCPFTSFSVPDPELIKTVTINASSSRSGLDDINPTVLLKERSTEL
# Source text: As well, platelets in whole blood contain a large amount of the COX-1 enzyme. Immediately following blood clotting, platelets are activated through a thrombin-mediated mechanism. This reaction results in the production of thromboxane B2 (TxB2) via activation of COX-1. Thus, the effect of test compounds on TxB2 levels following blood clotting can be examined and used as an index for COX-1 activity. Therefore, the degree of selectivity by the test compound can be determined by measuring the levels of PGE2 after LPS induction (COX-2) and […] following blood clotting (COX-1) in the same assay.
# A. COX-2 (LPS-induced PGE2 production)
# Fresh blood is collected in heparinized tubes by venipuncture from both male and female volunteers. The subjects have no apparent inflammatory conditions and have not taken any NSAIDs for at least 7 days prior to blood collection. Plasma is immediately obtained from a 2mL blood aliquot to use as blank (basal levels of PGE2). The remaining blood is incubated with LPS (100 μg/ml final concentration, Sigma Chem, #L-2630 from E. coli; diluted in 0.1% BSA (Phosphate buffered saline) for 5 minutes at room temperature. Five hundred μL aliquots of blood are incubated with either 2μL of vehicle (DMSO) or 2 μL of a test compound at final concentrations varying from 10nM to 30 μM for 24 hours at 37° C. At the end of the incubation, the blood is centrifuged at 12,000×g for 5 minutes to obtain plasma. A 100 μL aliquot of plasma is mixed with 400 μL of methanol for protein precipitation. The supernatant is obtained and is assayed for PGE2 using a radioimmunoassay kit (Amersham, RPA#530) after conversion of PGE2 to its methyl oximate derivative according to the manufacturer's procedure. […]
# COX-1 = COX-1 (Homo sapiens, UniProt P23219); test: Assay of COX-1 activity from U937 cell microsomes; type: biochemical; design: Assay of COX-1 Activity from U937 cell microsomes; endogenous in cells; host or cells: U937 cells, 100,000×g microsomal pellet; conditions: PGE2, read-out: COX-1 (IC50 μM) U-937
# Chain of COX-1 (P23219 24-599): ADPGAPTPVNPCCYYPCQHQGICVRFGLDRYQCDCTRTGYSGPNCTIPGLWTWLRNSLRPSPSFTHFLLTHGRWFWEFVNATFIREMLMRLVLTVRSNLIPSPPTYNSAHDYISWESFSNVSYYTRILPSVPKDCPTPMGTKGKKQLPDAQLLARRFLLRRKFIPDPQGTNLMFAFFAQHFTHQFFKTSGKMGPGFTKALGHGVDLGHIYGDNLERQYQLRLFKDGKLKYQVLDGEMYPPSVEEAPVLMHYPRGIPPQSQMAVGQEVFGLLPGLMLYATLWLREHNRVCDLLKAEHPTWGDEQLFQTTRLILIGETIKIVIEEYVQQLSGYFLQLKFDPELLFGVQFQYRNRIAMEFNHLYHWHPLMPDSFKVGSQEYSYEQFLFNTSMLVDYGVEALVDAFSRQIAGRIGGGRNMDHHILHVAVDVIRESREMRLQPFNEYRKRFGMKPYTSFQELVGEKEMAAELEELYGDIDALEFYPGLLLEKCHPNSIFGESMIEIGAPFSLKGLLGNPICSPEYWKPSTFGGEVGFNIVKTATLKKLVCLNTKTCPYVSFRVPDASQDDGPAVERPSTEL
# Procedure: Assay of COX-1 Activity from U937 cell microsomes
# U 937 cells are pelleted by centrifugation at 500×g for 5 min and washed once with phosphate-buffered saline and repelleted. […] The cell suspension is sonicated 4 times for 10 sec and is centrifuged at 10,000×g for 10 min at 4° C. The supernatant is centrifuged at 100,000×g for 1 hr at 4° C. The 100,000×g microsomal pellet is resuspended in 0.1 M Tris-HCl, pH 7.4, 10 mM EDTA to approximately 7 mg protein/ml and stored at -80° C.
# Microsomal preparations are thawed immediately prior to use, subjected to a brief sonication, and then diluted to a protein concentration of 125 μg/ml in 0.1 M Tris-HCl buffer, pH 7.4 containing 10 mM EDTA, 0.5 mM phenol, 1 mM reduced glutathione and 1 μM hematin. Assays are performed in duplicate in a final volume of 250 pl. Initially, 5 µl of DMSO vehicle or drug in DMSO are added to 20 μl of 0.1 M Tris-HCl buffer, pH 7.4 containing 10 mM EDTA in wells of a 96-deepwell polypropylene titre plate. 200 μl of the microsomal preparation are then added and pre-incubated for 15 min at room temperature before addition of 25 μl of […] in 0.1 M Tris-HCl and 10 mM EDTA, pH 7.4. Samples are incubated for 40 min at room temperature and the reaction is stopped by the addition of 25 pl of 1 N HCl. Samples are neutralized with 25 μl of 1 N NaOH prior to quantitation of PGE2 content by radioimmunoassay (Dupont-NEN or Amersham assay kits). Cyclooxygenase activity is defined as the difference between PGE2 levels in samples incubated in the presence of arachidonic acid and ethanol vehicle.
# (§1) In the assay, inhibition is determined by measuring the amount of prostaglandin E2 (PGE2) synthesized in the presence of arachidonic acid, cyclooxygenase-I or cyclooxygenase-2 and a putative inhibitor.
# COX-2 [2] = biological target: T1, COX-2; test: Whole cell assay for COX-2 using CHO transfected cell line (CHO [hCOX-2]), PGE2; type: cell-based; design: expressed in transfected cells; host or cells: CHO (Chinese hamster ovary), stably transfected with pCDNAIII vector; CHO [hCOX-2]; conditions: CHO [hCOX-2] cells, 10 μM AA
# Procedure: Chinese hamster ovary (CHO) cell lines which have been stably transfected with an eukaryotic expression vector pCDNAIII containing either the human COX-1 or COX-2 cDNA's are used for the assay. These cell lines are referred to as CHO [hCOX-1] and CHO [hCOX-2], respectively. […] Drugs to be tested are dissolved in DMSO to 66.7-fold the highest test drug concentration. […] Cells (0.3×10^6 cells in 200 p) are preincubated with 3 AIl of the test drug or DMSO vehicle for 15 min at 37° C. […] Cells are then challenged in the presence or absence of drug with the AA/HBSS solution to yield a final concentration of 0.5 μM AA in the CHOhCOX-1] assay and a final concentration of 10 μM AA in the CHO [hCOX-2] assay. […] The samples are centrifuged at 300×g at 4° C. for 10 min, and an aliquot of the clarified supernatant is appropriately diluted for the determination of PGE2 levels using an enzyme-liked immunoassay for PGE2 (Correlate PGE2 enzyme immunoassay kit, Assay Designs, Inc.). Cyclooxygenase activity in the absence of test compounds is determined as the difference in PGE2 levels of cells challenged with arachidonic acid versus the PGE2 levels in cells mock-challenged with ethanol vehicle. Inhibition of PGE2 synthesis by test compounds is calculated as a percentage of the activity in the presence of drug versus the activity in the positive control samples.
# as §1
IC50 (COX-2 [1]),IC50 (COX-1),IC50 (COX-2 [2]),Structure (SMILES)
8.6 µM,> 10 µM,,"CS(=O)(=O)c1ccc(-c2cnn(CCc3ccccc3)c(=O)c2-c2ccc(F)cc2)cc1 [Example 33, 2-(2-Phenethyl)-4-(4-fluorophenyl)-5-(4-methylsulfonyl)phenyl-2H-pyridazin-3-one]"
1.3 µM,> 10 µM,0.18 µM,"CS(=O)(=O)c1ccc(-c2cnn(CCCC(F)(F)F)c(=O)c2-c2ccc(F)cc2)cc1 [Example 29, 4-(4-Fluorophenyl)-5-(4-methylsulfonyl)phenyl-2-(4,4,4-trifluorobutyl)-2H-pyridazin-3-one]"
0.86 µM,> 10 µM,,"CS(=O)(=O)c1ccc(-c2cnn(Cc3ccccc3)c(=O)c2Oc2ccc(Br)cn2)cc1 [Example 34, 2-Benzyl-4-(5-bromo-2-pyridyloxy)-5-(4-methylsulfonyl)phenyl-2H-pyridazin-3-one]"
,> 10 µM,,"CS(=O)(=O)c1ccc(-c2cnn(CCC(F)(F)F)c(=O)c2-c2ccc(F)cc2)cc1 [Example 19, 4-(4-Fluorophenyl)-5-(4-methylsulfonyl)phenyl-2-(3,3,3-trifluoropropyl)-2H-pyridazin-3-one]"
0.8 µM,> 10 µM,0.009 µM,"CS(=O)(=O)c1ccc(-c2cnn(Cc3cccc(F)c3)c(=O)c2-c2ccccc2)cc1 [Example 15, 2-(3-Fluorobenzyl)-5-(4-methylsulfonyl)phenyl-4-phenyl-2H-pyridazin-3-one]"
,~1 µM,,"CS(=O)(=O)c1ccc(-c2cnn(Cc3cccs3)c(=O)c2-c2ccc(F)cc2)cc1 [Example 27, 4-(4-Fluorophenyl)-5-(4-methylsulfonyl)phenyl-2-(thiophen-2-yl-methyl)-2H-pyridazin-3-one]"
1.1 µM,3 to 10 µM,0.053 µM,"CS(=O)(=O)c1ccc(-c2cnn(Cc3ccc(F)cc3)c(=O)c2-c2ccc(F)cc2)cc1 [Example 16, 2-(4-Fluorobenzyl)-4-(4-fluorophenyl)-5-(4-methylsulfonyl)phenyl-2H-pyridazin-3-one]"
1.4 µM,~1 µM,0.49 µM,"CC(c1ccccc1)n1ncc(-c2ccc(S(C)(=O)=O)cc2)c(-c2ccc(F)cc2)c1=O (stereo not shown) [Example 25, 4-(4-Fluorophenyl)-5-(4-methylsulfonyl)phenyl-2-(1-phenyl-ethyl)-2H-pyridazin-3-one]"
> 33 µM,> 10 µM,2 µM,"COC(=O)c1ccc(Cn2ncc(-c3ccc(S(C)(=O)=O)cc3)c(-c3ccccc3)c2=O)cc1 [Example 13, 2-(4-Carbomethoxybenzyl)-5-(4-methylsulfonyl)phenyl-4-phenyl-2H-pyridazin-3-one]"
0.9 µM,3 to 10 µM,0.26 µM,"CS(=O)(=O)c1ccc(-c2cnn(Cc3ccccc3)c(=O)c2Oc2ccc(Cl)cn2)cc1 [Example 23, 2-Benzyl-4-(5-chloro-2-pyridyloxy)-5-(4-methylsulfonyl)phenyl-2H-pyridazin-3-one]"
,0.3 to 1 µM,,"CS(=O)(=O)c1ccc(-c2cnn(CC3CCCCC3)c(=O)c2-c2ccc(F)cc2)cc1 [Example 36, 2-Cyclohexylmethyl-4-(4-fluorophenyl)-5-(4-methylsulfonyl)phenyl-2H-pyridazin-3-one]"
16.8 µM,> 10 µM,1.4 µM,"CS(=O)(=O)c1ccc(-c2cnn(Cc3ccncc3)c(=O)c2-c2ccc(F)cc2)cc1 [Example 20, 4-(4-Fluorophenyl)-5-(4-methylsulfonyl)phenyl-2-(4-pyridylmethyl)-2H-pyridazin-3-one]"
3.8 µM,> 10 µM,0.18 µM,"CC(C)Cn1ncc(-c2ccc(S(C)(=O)=O)cc2)c(-c2ccc(F)cc2)c1=O [Example 31, 4-(4-Fluorophenyl)-2-(2-methylpropyl)-5-(4-methylsulfonyl)phenyl-2H-pyridazin-3-one]"
,> 10 µM,,"CS(=O)(=O)c1ccc(-c2cnn(Cc3ccccc3F)c(=O)c2-c2ccccc2)cc1 [Example 17, 2-(2-Fluorobenzyl)-5-(4-methylsulfonyl)phenyl-4-phenyl-2H-pyridazin-3-one]"
2.4 µM,~10 µM,0.16 µM,"CC(C)(C)Cn1ncc(-c2ccc(S(C)(=O)=O)cc2)c(-c2ccc(F)cc2)c1=O [Example 24, 2-(2,2-Dimethylpropyl)-4-(4-fluorophenyl)-5-(4-methylsulfonyl)phenyl-2H-pyridazin-3-one]"
5.5 µM,> 10 µM,0.065 µM,"CS(=O)(=O)c1ccc(-c2cnn(-c3cccc(F)c3)c(=O)c2-c2ccccc2)cc1 [Example 26, 2-(3-Fluorophenyl)-5-(4-methylsulfonyl)phenyl-4-phenyl-2H-pyridazin-3-one]"
,~10 µM,,"CS(=O)(=O)c1ccc(-c2cnn(C3CC3)c(=O)c2-c2ccc(F)cc2)cc1 [Example 18, 2-Cyclopropyl-5-(4-methylsulfonyl)phenyl-4-(4-fluorophenyl)-2H-pyridazin-3-one]"
0.35 µM,,,"Cc1ccc(-c2c(-c3ccc(S(C)(=O)=O)cc3)cnn(Cc3ccccc3)c2=O)cc1 [Example 35, 2-Benzyl-4-(4-methylphenyl)-5-(4-methylsulfonyl)phenyl-2H-pyridazin-3-one]"
